Measurements taken from US20210401809A1, “PHARMACEUTICAL COMPOUNDS” (Sareum Limited, priority 2016, published 2021).

Tests used:
[1] = test system: CCRF-CEM cells (TYK2-dependent T-ALL); assay: Cell proliferation assay (ATPlite, 7 days); assay type: cell-based; conditions: Homo sapiens, 168 h
Procedure: (§1) Jurkat, MOLT-4, CCRF-CEM and CCRF-HSB-2 cells are all TYK2-dependent T-ALL cells. Loucy cells are TYK2-independent T-ALL cell lines. Dexamethasone, Etoposide and Paclitaxel were used as positive controls. Compound effects were studied 7 days after compound addition […] Luminescent product was detected using a BMG FLUOstar plate reader. • The data were analysed using a 4-parameter logistic equation in GraphPad Prism.

[2] = test system: CCRF-HSB-2 cells (TYK2-dependent T-ALL); assay: Cell proliferation assay (ATPlite, 7 days); assay type: cell-based; conditions: Homo sapiens, CCRF-HSB-2, 168 h
Procedure: as §1

[3] = test system: Jurkat cells (TYK2-dependent T-ALL); assay: Cell proliferation assay (ATPlite, 7 days); assay type: cell-based; conditions: Homo sapiens, 168 h
Procedure: as §1

[4] = test system: Loucy cells (TYK2-independent T-ALL); assay: Cell proliferation assay (ATPlite, 7 days); assay type: cell-based; conditions: 168 h
Procedure: as §1

[5] = test system: MOLT-4 cells (TYK2-dependent T-ALL); assay: Cell proliferation assay (ATPlite, 7 days); assay type: cell-based; conditions: Homo sapiens, MOLT-4, 168 h
Procedure: as §1

[6] = test system: TYK2 dependent cell lines (T-ALL cells); conditions: Sanda et al.; cited from earlier work
JAK1 = molecular target: T1, JAK1 (Homo sapiens, UniProt P23458); assay: In vitro enzyme inhibition, 33P-ATP filter kinase assay (Reaction Biology); assay type: biochemical
T1 construct: 866-1154; GST (N); purchased Reaction Biology Corp. (contract assay); host or cells: Baculovirus in Sf21 insect cells
T1 sequence (P23458 866-1154): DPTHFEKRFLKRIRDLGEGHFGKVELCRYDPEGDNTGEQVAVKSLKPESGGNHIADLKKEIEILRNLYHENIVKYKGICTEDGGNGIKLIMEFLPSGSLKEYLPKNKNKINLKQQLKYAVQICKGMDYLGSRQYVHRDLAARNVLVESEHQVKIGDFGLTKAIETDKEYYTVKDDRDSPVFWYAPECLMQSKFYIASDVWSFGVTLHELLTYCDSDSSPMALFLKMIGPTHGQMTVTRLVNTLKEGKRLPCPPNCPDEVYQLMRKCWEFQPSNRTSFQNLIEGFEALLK
Procedure: (§2) Compounds of the invention were assayed for their ability to inhibit TYK2 kinase and other JAK kinases.
(§3) Substrates and kinases used in the assays are identified in Table 2 below.
(§4) JAK3tide=[Ac-[…]-NH2]

JAK3 = molecular target: T2, JAK3 (Homo sapiens, UniProt P52333); assay: as above; assay type: biochemical
T2 construct: 781-1124; GST (N); purchased Reaction Biology Corp. (contract assay); host or cells: Baculovirus in Sf21 insect cells
T2 sequence (P52333 781-1124): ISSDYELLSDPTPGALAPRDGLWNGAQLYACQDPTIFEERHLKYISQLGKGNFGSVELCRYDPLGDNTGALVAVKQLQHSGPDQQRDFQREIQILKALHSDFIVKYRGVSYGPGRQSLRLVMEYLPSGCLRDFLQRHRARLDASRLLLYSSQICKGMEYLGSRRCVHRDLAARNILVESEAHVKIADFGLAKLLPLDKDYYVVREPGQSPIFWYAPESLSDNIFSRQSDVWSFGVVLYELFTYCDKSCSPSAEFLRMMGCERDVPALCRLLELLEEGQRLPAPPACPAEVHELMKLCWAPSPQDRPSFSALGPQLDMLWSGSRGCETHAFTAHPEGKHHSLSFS
Procedure: as §2, §3, §4

TYK2 kinase = molecular target: T3, TYK2 kinase (Homo sapiens, UniProt P29597); assay: as above; assay type: biochemical
T3 construct: 833-1187; GST (N); purchased Reaction Biology Corp. (contract assay); host or cells: Baculovirus in Sf21 insect cells
T3 sequence (P29597 833-1187): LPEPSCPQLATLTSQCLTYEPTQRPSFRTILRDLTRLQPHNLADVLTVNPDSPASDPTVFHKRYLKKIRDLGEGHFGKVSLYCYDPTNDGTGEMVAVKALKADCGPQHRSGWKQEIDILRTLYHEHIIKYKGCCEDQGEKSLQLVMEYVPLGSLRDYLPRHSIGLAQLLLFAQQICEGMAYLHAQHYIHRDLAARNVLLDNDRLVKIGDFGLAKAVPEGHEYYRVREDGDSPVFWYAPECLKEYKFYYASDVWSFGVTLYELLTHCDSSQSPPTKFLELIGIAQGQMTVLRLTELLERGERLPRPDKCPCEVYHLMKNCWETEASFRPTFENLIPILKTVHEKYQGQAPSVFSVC
Procedure: as §2, §3, §4

JAK2 = molecular target: T4, JAK2 (Homo sapiens, UniProt O60674); assay: as above; assay type: biochemical
T4 construct: 809-1132; GST (N); '+g'; purchased Reaction Biology Corp. (contract assay); host or cells: Baculovirus in Sf21 insect cells
T4 sequence (O60674 809-1132): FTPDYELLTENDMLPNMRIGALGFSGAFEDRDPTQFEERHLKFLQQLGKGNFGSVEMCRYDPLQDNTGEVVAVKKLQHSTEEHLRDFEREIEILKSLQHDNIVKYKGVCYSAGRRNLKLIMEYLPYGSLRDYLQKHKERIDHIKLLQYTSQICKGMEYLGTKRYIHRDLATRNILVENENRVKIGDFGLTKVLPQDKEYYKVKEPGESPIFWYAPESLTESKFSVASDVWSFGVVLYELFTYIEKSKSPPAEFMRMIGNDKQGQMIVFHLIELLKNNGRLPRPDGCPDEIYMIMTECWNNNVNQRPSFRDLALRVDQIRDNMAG
Procedure: as §2, §3

| Compound | IC50 [2] [µM] | IC50 (JAK1) [nM] | IC50 (JAK3) [nM] | IC50 (TYK2 kinase) [nM] | IC50 (JAK2) [nM] | further results |
| --- | --- | --- | --- | --- | --- | --- |
| COc1cc([C@@H]2c3cc4c(cc3[C@@H](O[C@@H]3O[C@@H]5CO[C@@H](C)O[C@H]5[C@H](O)[C@H]3O)[C@H]3COC(=O)[C@H]23)OCO4)cc(OC)c1O [Etoposide, reference compound] | 4.7 |  |  |  |  | IC50 [1]: 17 µM; IC50 [3]: 94 µM; IC50 [4]: 33 µM; IC50 [5]: 7.7 µM |
| C[C@@H]1CCN(C(=O)CC#N)C[C@@H]1N(C)c1ncnc2[nH]ccc12 [CP-690550] |  |  |  |  |  | effect against the T-ALL cells [6]: ineffective |
| NC(=O)c1nc(-c2c(Cl)cccc2Cl)oc1Nc1ccc(C(=O)N[C@H]2CCCNC2)cc1 [Compound 27, (S) 2-(2,6-dichloro-phenyl)-5-[4-(piperidin-3-ylcarbamoyl)-phenylamino]-oxazole-4-carboxylic acid amide] |  | 72.2 | 233 | 1.21 | 93.3 |  |
| NC(=O)c1nc(-c2c(F)cccc2Cl)oc1Nc1ccc(C(=O)N[C@@H]2CCCNC2)cc1 [Compound 24, (R) 2-(2-chloro-6-fluoro-phenyl)-5-[4-(piperidin-3-ylcarbamoyl)-phenylamino]-oxazole-4-carboxylic acid amide] |  | 157 | 167 | 5.11 | 125 |  |
| C[C@@H]1C[C@H]2[C@@H]3CCC4=CC(=O)C=C[C@]4(C)[C@@]3(F)[C@@H](O)C[C@]2(C)[C@@]1(O)C(=O)CO [Dexamethasone, reference compound] | 49 |  |  |  |  | IC50 [1]: 59 µM; inhibition at 10 µM ([3]; 10 μM, read-out: Cell proliferation inh. @ 10 μM, Jurkat): 5%; inhibition at 10 µM ([4]; 10 μM, read-out: Cell proliferation inh. @ 10 μM, Loucy): 25%; inhibition at 10 µM ([5]; 10 μM, read-out: Cell proliferation inh. @ 10 μM, MOLT-4): 21% |
| CC(C)S(=O)(=O)c1ccc(Nc2oc(-c3c(F)cccc3F)nc2C(N)=O)cc1 [Compound 33] |  | 135 | 516 | 5.47 | 153 |  |
| CC(=O)O[C@H]1C(=O)[C@@]2(C)[C@H]([C@H](OC(=O)c3ccccc3)[C@]3(O)C[C@H](OC(=O)[C@H](O)[C@@H](NC(=O)c4ccccc4)c4ccccc4)C(C)=C1C3(C)C)[C@]1(OC(C)=O)CO[C@@H]1C[C@@H]2O [Paclitaxel, reference compound] | 1.3 |  |  |  |  | IC50 [1]: 4.4 µM; IC50 [3]: 1.8 µM; IC50 [4]: 2.2 µM; IC50 [5]: 0.66 µM |
| CCS(=O)(=O)c1ccc(Nc2oc(-c3c(F)cccc3F)nc2C(N)=O)cc1 [Compound 31, 2-(2,6-difluoro-phenyl)-5-(4-ethanesulfonyl-phenylamino)-oxazole-4-carboxylic acid amide] |  | 222 | 390 | 4.41 | 213 |  |
| CN1CCC(NC(=O)c2ccc(Nc3oc(-c4c(F)cccc4Cl)nc3C(N)=O)cc2)CC1 [Compound 26, 2-(2-chloro-6-fluoro-phenyl)-5-[4-(1-methyl-piperidin-4-ylcarbamoyl)-phenylamino]-oxazole-4-carboxylic acid amide] |  | 100 | 132 | 2.98 | 87.8 |  |
| CS(=O)(=O)c1ccc(Nc2oc(-c3c(Cl)cccc3Cl)nc2C(N)=O)cc1 [Compound 19, 2-(2,6-dichloro-phenyl)-5-(4-methanesulfonyl-phenylamino)-oxazole-4-carboxylic acid amide] | 17 |  |  |  |  | inhibition at 30 µM ([1]; 30 μM, read-out: Cell proliferation inh. @ 30 μM, CCRF-CEM): 34%; inhibition at 30 µM ([3]; 30 μM, read-out: Cell proliferation inh. @ 30 μM, Jurkat): 8%; IC50 [4]: 20 µM; IC50 [5]: 12 µM |
| CN1CCC(NC(=O)c2ccc(Nc3oc(-c4c(Cl)cccc4Cl)nc3C(N)=O)cc2)CC1 [Compound 30, 2-(2,6-dichloro-phenyl)-5-[4-(1-methyl-piperidin-4-ylcarbamoyl)-phenylamino]-oxazole-4-carboxylic acid amide] |  | 83.4 | 164 | 1.52 | 106 |  |
| NC(=O)c1nc(-c2c(Cl)cccc2Cl)oc1Nc1ccc(C(=O)N[C@@H]2CCCNC2)cc1 [Compound 28, (R) 2-(2,6-dichloro-phenyl)-5-[4-(piperidin-3-ylcarbamoyl)-phenylamino]-oxazole-4-carboxylic acid amide] |  | 108 | 194 | 1.77 | 122 |  |
| CS(=O)(=O)c1ccc(Nc2oc(-c3c(F)cccc3Cl)nc2C(N)=O)cc1 [Compound 20, 2-(2-chloro-6-fluoro-phenyl)-5-(4-methanesulfonyl-phenylamino)-oxazole-4-carboxylic acid amide] | 2.8 |  |  |  |  | IC50 [1]: 8.9 µM; IC50 [3]: 2.1 µM; IC50 [4]: 3.9 µM; IC50 [5]: 3.1 µM |
| NC(=O)c1nc(-c2c(F)cccc2Cl)oc1Nc1ccc(C(=O)N[C@H]2CCCNC2)cc1 [Compound 23, (S) 2-(2-chloro-6-fluoro-phenyl)-5-[4-(piperidin-3-ylcarbamoyl)-phenylamino]-oxazole-4-carboxylic acid amide] |  | 63.3 | 240 | 1.89 | 61.9 |  |
